Among the data in the METLIN SMRT retention time set (Domingo-Almenara et al. 2019) are RP-LC retention time values, retold here.

The series in a line: gradient 5% acetonitrile 3 min, to 50% in 2 min, to 85% in 15 min, held 3 min, 100 µL/min. Particulars: column: Zorbax Extend-C18 2.1 x 50 mm; eluents: water / acetonitrile, 0.1% formic acid. The gist of the method:
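Each retention time is based on an adduct peak selected computationally and verified by manual inspection. Measurements used HPLC–quadrupole time-of-flight mass spectrometry in positive and negative ionization mode on mixtures of ~100 pure standards. Chromatography ran on a Zorbax Extend-C18 column (2.1 × 50 mm, 1.8 μm) at 100 μL/min with water and acetonitrile, each containing 0.1% formic acid, and dead and dwell volumes of 40 μL and 900 μL.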
With `CCc1ccc(NC(=O)C2CCN(S(C)(=O)=O)c3cc(C)ccc3O2)cc1` (stereo not given), the RP-LC retention time stood at 998 s.
`Cc1nnc2c(NC(=O)c3ccsc3)cccn12` came in with an RP-LC retention time of 606 s.
Next, `CC(C)CCN1CC(=O)N2Cc3[nH]c4ccccc4c3C[C@H]2C1=O`: 825 s; `CC(C)NC(=O)C1CC(=O)N(c2ccc3c(c2)CCN3C(=O)C2CC2)C1` (stereo not given): 657 s; `O=C(CN1C[C@H]2C[C@H](C1)[C@H]1CCCC(=O)N1C2)NCC1CCCCC1`: 612 s.
As to `COc1ccc(Cl)cc1Nc1nc(N)nc(CN2CCN(c3ccccn3)CC2)n1`, the RP-LC retention time is 612 s.
With `Cc1ccnc(N2CCC(C(=O)NCCc3ccco3)CC2)n1` the figure was 640 s; with `Cc1nn(CC(=O)NCCc2c[nH]c3ccc(Cl)cc23)c(=O)c2c(C)n(-c3ccccc3)nc12`, 908 s.
On to `CCn1cc(SCC(=O)Nc2c(C)cc(C)cc2C)c2ccccc21`, for which the RP-LC retention time is 998 s.
With `CC(C)CNC(=O)c1cn(-c2cc(-c3nc(C(C)C)no3)ccn2)cn1` the figure was 920 s.
Regarding `O=c1ccn(-c2ccc(Cl)cc2)nc1-c1nc(-c2ccccc2Cl)no1`, the RP-LC retention time was 963 s.
In turn, `COc1ccc(-c2nnc(-c3ccccc3Cl)o2)cc1S(=O)(=O)N1CCCCCC1` came in with an RP-LC retention time of 1100 s.
Next, `CCCNC(=O)CCc1c(C)n(C)c2nc(-c3ccccc3)nn2c1=O`: 665 s; `COc1cccc(-c2nc(Cn3cnc4ccccc4c3=O)no2)c1OC`: 802 s.
`CCC(=O)Nc1ccc2c(c1)N(C(=O)c1ccco1)CCC2`: the RP-LC retention time was 725 s.
With `CC(=O)N1c2ccc(S(=O)(=O)NCCOc3ccc(F)cc3)cc2CC1C` (stereo not given) the figure was 798 s; with `COC(=O)CC(=O)Nc1cc2c(cc1N1CCCCC1)n(C)c(=O)n2C`, 641 s; with `CO[C@H]1C(=O)N(C(C)C)[C@H]1C1CCN(C(=O)Cn2ccnc2)CC1`, 562 s.
With `O=C(Nc1ccc(F)cc1)N1CCC(CCOc2ccncc2)CC1` the figure was 616 s; with `CC1=C(c2ccccc2)S(=O)(=O)N=C1N1CCCN(C(=O)c2ccccc2Cl)CC1`, 811 s.
Turning to `COc1cc(CNC(=O)Cn2ccc3c(=O)n(C)c(=O)n(C)c32)cc(OC)c1`, the RP-LC retention time came to 662 s.
Compound `COc1ccccc1NC(=O)C1CCN(S(=O)(=O)c2cc(-c3noc(C4CC4)n3)cs2)CC1` yielded an RP-LC retention time of 1020 s.
In turn, `O=C1NC2C(=CC(O)C(O)C2O)c2cc3c(cc21)OCO3` (stereo not given) returned an RP-LC retention time of 568 s.
On to `O=C(Cn1cccc(-c2nc(-c3ccc(F)cc3)no2)c1=O)N1CCN(c2ccc(F)cc2)CC1`, for which the RP-LC retention time came to 898 s.
Next, `COc1cccc(CNC(=O)C2CCCN2S(=O)(=O)c2cc3c(cc2C)NC(=O)CO3)c1` (stereo not given): 721 s; `CC(NC(=O)Cn1c(=O)n(-c2ccc(F)cc2)c2ncccc21)c1ccccn1` (stereo not given): 627 s; `COc1ccc(CSc2nccc3c2ccn3CC(=O)NCc2ccc(OC)c(OC)c2)cc1`: 681 s.
Regarding `CCCOc1cc(N2CCN(C(=O)c3ccc4c(c3)OCO4)CC2)nc(C)n1`, the RP-LC retention time worked out at 608 s.
Compound `O=C(NCc1ccc(F)cc1)C1=C2CCCN2c2ccc(F)cc2S1(=O)=O` returned an RP-LC retention time of 864 s.
As for `CN(C)c1cnc(-n2cc(NC(=O)c3ccc(C#N)cc3)cn2)nc1`, the RP-LC retention time was 716 s.
Next, `COC(=O)c1ccc(N2C=C(C#N)S(=O)(=O)c3ccc(C)cc32)cc1`: 887 s; `COc1cc(=O)n2c(c1C(=O)NC1CCCCCC1)CCCC2`: 694 s; `CC1CCCCN1c1cc(-n2cnc(C(=O)N3CCCCC3)c2)ncn1` (stereo not given): 880 s.
With `Brc1ccc(-c2csc(Cc3nc(-c4ccc5c(c4)OCO5)no3)n2)cc1`, the RP-LC retention time stood at 1300 s.
Compound `CCOC(=O)C1=C(CN2CCCC2)NC(=O)NC1c1ccc(OC)cc1` (stereo not given) gave an RP-LC retention time of 597 s.
With `O=C(Cc1coc2ccc3ccccc3c12)NCc1ccco1`, the RP-LC retention time is 818 s.
The compound `O=C(O)c1cc2nc(-c3ccc(F)cc3)cc(C(F)(F)F)n2n1` returned an RP-LC retention time of 880 s.
On to `CCc1ccc(C(=O)N2CCC3(C2)C(=O)Nc2ccccc23)cc1` (stereo not given), for which the RP-LC retention time was 769 s.
With `COC(=O)c1nnn(-c2cccc(Cl)c2C)c1C(=O)OC` the figure was 936 s; with `Cc1nc(-c2cn(C)c3ncccc23)sc1C(=O)Nc1ccc(F)c(F)c1`, 940 s; with `CCCn1c(=O)c(C)nc2cc(-c3noc(-c4ccc(OC)c(OC)c4)n3)ccc21`, 1090 s.
Take `COc1cc(OC)c(NS(=O)(=O)c2cc(-c3c(C)noc3NC(C)=O)ccc2C)cc1Cl`: the RP-LC retention time is 813 s.
In turn, `CCc1nnc(-c2ccc3ccn(CC(=O)NCCc4ccccc4)c3c2)o1` displayed an RP-LC retention time of 836 s.
In turn, `Cc1ccnc(N2CCC(C(=O)NCCCN3CCCCCC3)CC2)n1` showed an RP-LC retention time of 556 s.
`CCC(C(=O)N1CCN(CC)CC1)n1c2ccccc2c2cnn(C)c(=O)c21` (stereo not given) had an RP-LC retention time of 619 s.
Take `CCc1cc(=O)n(CC(=O)Nc2ccc(Cl)c(Cl)c2)c(-n2nc(C)cc2C)n1`: the RP-LC retention time was 1060 s.
Regarding `O=C(NCc1ccccc1)c1nc2ccccn2c1-c1ccsc1`, the RP-LC retention time amounted to 842 s.
With `CCOc1ccc(NC(=O)Cn2c(=O)c(CCC(=O)NCC(C)C)nc3ccccc32)cc1` the figure was 824 s; with `COc1ccc(Cc2nc3ccccc3n2CC(=O)N2CCCCCC2)cc1OC`, 653 s.
The compound `Cc1cc(C)cc(C(=O)N2CCN(S(=O)(=O)c3cc4c5c(c3)CCC(=O)N5CCC4)CC2)c1` returned an RP-LC retention time of 815 s.
Next, `CCn1cc(C(=O)Nc2cc(C)ccc2C)c2cccnc21`: 854 s; `CCN(CCCNC(=O)C1CCCN(c2ncnc3c2nc2n3CCCCC2)C1)c1cccc(C)c1` (stereo not given): 647 s.
For `Cc1ccc(NC(=O)NC(C)C(=O)N2CCc3ccccc32)c(Cl)c1` (stereo not given), the RP-LC retention time came to 967 s.
In turn, `CCc1ccc(NC(=O)Cn2c(N3CCOCC3)nc(C)cc2=O)cc1` displayed an RP-LC retention time of 711 s.
Compound `O=C(CSc1nnc(COc2ccccc2)o1)NCc1ccco1` showed an RP-LC retention time of 753 s.
`Cc1ccc(CNC(=O)c2cn(C)nc2S(=O)(=O)N2CCSCC2)cc1` displayed an RP-LC retention time of 902 s.
With `O=C(Nc1nc(-c2ccc([N+](=O)[O-])cc2)cs1)C1=COCCO1`, the RP-LC retention time was found to be 844 s.
On to `CCCN1C(=O)c2ccccc2C(C(=O)N2CCOCC2)C1c1cc(OC)c(OC)c(OC)c1` (stereo not given), for which the RP-LC retention time is 684 s.
Regarding `CC1=NS(=O)(=O)N(C)C=C1C(=O)OCc1nc(-c2ccccc2C)no1`, the RP-LC retention time stood at 1000 s.
`Cc1ccc2oc(C(=O)Nc3ccnn3Cc3ccccc3)cc(=O)c2c1`: the RP-LC retention time worked out at 835 s.
